18 compounds from article PMC9053591 (RSC Advances, 2020) can be followed below.

Where “and” joins values, the source holds several entries; their conditions need not be identical. Equal values may be shown once. Where a name gives a salt, the structure may show the parent alone. Bounds are passed on as bounds.

One data set addresses AChE from electric eel (Electrophorus electricus, UniProt O42275). As to the kind of experiment: AChE inhibition, Ellman's method. Format: biochemical. The note with it: IC50 ± SD (μM) AChE, means ± SD of three experiments. A general note: In Ellman's method for cholinesterases, released thiocholine reacts with DTNB.
The target of a further data set is BuChE from equine serum (Equus caballus, UniProt P81908). Description: BuChE inhibition, Ellman's method. The data set is classed as biochemical.
BuChE from equine serum, sequence (P81908 whole entry): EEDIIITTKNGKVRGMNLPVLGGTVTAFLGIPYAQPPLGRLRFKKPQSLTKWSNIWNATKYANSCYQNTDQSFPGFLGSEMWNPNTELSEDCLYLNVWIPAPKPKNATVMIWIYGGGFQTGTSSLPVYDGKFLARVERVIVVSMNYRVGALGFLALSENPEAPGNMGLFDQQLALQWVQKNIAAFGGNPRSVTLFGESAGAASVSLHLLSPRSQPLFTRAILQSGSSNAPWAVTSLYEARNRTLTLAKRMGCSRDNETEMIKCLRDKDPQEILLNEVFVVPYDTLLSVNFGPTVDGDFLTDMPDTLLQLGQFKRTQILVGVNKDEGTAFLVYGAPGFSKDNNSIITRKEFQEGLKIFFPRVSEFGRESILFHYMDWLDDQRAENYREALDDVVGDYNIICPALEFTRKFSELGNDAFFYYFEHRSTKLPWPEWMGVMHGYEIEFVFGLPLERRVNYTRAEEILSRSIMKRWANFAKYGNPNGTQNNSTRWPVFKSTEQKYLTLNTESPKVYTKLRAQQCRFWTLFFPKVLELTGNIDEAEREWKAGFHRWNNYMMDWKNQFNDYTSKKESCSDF
Data set [1] concerns SH-SY5Y cells. Description: Neuroprotection against H2O2-induced death, MTT assay. The following applies: 200 μM H2O2 for 24 h. On the technique in general: Tetrazolium dyes change colour on reduction, which living cells bring about.
The next data set concerns the target AChE (Electrophorus electricus, UniProt O42275). As to the kind of experiment: Kinetic characterization of AChE inhibition, Lineweaver–Burk plot. Format: biochemical. The following applies: Lineweaver–Burk reciprocal plots; compound at 2, 6 and 8 μM.
The nature of data set [2]: In vitro cytotoxicity, MTT assay. The data set is classed as cell-based, human. The note with it: human, SH-SY5Y cells.
The test system of data set [3] is SH-SY5Y cells. As to the kind of experiment: In vitro cytotoxicity, MTT assay. Format: cell-based, human. The following applies: 1 and 5 μM, 24 h, MTT.
In data set [4] the test system is scopolamine induced mice model of dementia. Description: Elevated plus maze. Format: in vivo. The note with it: n = 6, SEM.
A further data set has as its system scopolamine induced mice. As to the kind of experiment: Social recognition test, scopolamine induced mice. Format: in vivo.
Data set [5] deals with T1, Aβ1-42 (Homo sapiens, UniProt P05067). Description: Confocal laser scanning microscopy of Aβ1-42 aggregation inhibition. Format: biochemical. The following applies: Aβ1-42 co-incubated with compound, 48 h, 37 °C.
T1 sequence (P05067 672-713): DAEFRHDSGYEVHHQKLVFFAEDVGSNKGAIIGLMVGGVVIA
The target in data set [6] is T1, Aβ1-42. As to the kind of experiment: TEM study of inhibition of Aβ1-42 fibril formation. Format: biochemical. The following applies: Aβ1-42 50 μM, compound 50 μM, 37 °C, 48 h.

AChE from electric eel, sequence (O42275 24-633): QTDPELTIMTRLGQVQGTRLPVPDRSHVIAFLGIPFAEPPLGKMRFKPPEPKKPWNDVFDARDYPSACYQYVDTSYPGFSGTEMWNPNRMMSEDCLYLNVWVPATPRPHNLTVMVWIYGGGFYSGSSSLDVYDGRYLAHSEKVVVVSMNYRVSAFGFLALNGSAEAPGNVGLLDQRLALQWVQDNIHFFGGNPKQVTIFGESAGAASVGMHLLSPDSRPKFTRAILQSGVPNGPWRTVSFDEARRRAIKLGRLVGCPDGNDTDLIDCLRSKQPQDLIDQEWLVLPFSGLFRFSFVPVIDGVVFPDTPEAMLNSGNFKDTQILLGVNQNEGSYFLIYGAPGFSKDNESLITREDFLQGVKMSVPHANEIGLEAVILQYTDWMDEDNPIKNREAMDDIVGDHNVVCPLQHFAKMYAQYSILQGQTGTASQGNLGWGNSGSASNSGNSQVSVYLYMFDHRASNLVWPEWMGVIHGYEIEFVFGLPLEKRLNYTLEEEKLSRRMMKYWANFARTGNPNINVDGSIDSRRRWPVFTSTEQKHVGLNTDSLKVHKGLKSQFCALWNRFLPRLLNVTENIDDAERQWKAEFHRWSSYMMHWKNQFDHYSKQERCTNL
AChE, sequence (O42275 24-633): as above

By IC50 is commonly meant the concentration needed to halve the response being measured. A high value points to lower potency. `CS(=O)(=O)c1ccc2nc(NC(=O)CCN3CCN(C(=O)c4ccco4)CC3)sc2c1` [Compound 14, 3-[4-(Furan-2-carbonyl)-piperazin-1-yl]-N-(6-methanesulfonyl-benzothiazol-2-yl)-propionamide]: the IC50 was 14.6 ± 0.438 µM at AChE from electric eel and over 100 µM against BuChE from equine serum.
Consider `OO` [Compound H2O2, hydrogen peroxide], for which the “Cell viability with H2O2 alone” value in the data set on SH-SY5Y cells [1] came to 54.90%.
For orientation: viability means a read-out of living cells in per cent, often relative to untreated cells. Take `CS(=O)(=O)c1ccc2nc(NC(=O)CCN3CCN(c4ccccn4)CC3)sc2c1` [Compound 12, N-(6-Methanesulfonyl-benzothiazol-2-yl)-3-(4-pyridin-2-yl-piperazin-1-yl)-propionamide]: the IC50 was 2.31 µM and 2.32 µM against AChE from electric eel; over 100 µM against BuChE from equine serum. For the same compound, at AChE, the “Type of AChE inhibition” value is recorded as “uncompetitive type of inhibition”. The viability at 24 h, 10 µM in [2] was over 67%. Moreover, the Cytotoxicity entry with SH-SY5Y cells [3] is given as “no cytotoxicity”. Also, the “Transfer latency (TL)” value in data set [4] (scopolamine 3 mg kg−1 + compound 10 mg kg−1 i.p., 7 days) worked out at 12.81 ± 2.08 s; in [4] (scopolamine 3 mg kg−1 + compound 20 mg kg−1 i.p., 7 days), 12.62 ± 2.60 s. In addition, the “T2/T1 ratio (second interaction trial/first interaction trial)” value with scopolamine induced mice (scopolamine + compound 20 mg kg−1, mean SEM of 6 animals) is given as 0.377 ± 0.00072. The “Aβ1-42 aggregation by confocal laser scanning microscopy (ThT fluorescence)” value on Aβ1-42 [5] is “proficiently prevents Aβ1-42 fibril formation”. Further, the “Aβ1-42 fibril formation by TEM” value on Aβ1-42 [6] is “small dissociated aggregates and no characteristic fibrils of Aβ1-42”.
As for `CS(=O)(=O)c1ccc2nc(NC(=O)CCN3CCN(C(c4ccccc4)c4ccccc4)CC3)sc2c1` [Compound 11, 3-(4-Benzhydryl-piperazin-1-yl)-N-(6-methanesulfonyl-benzothiazol-2-yl)-propionamide], the IC50 is 4.54 µM and 4.55 µM at AChE from electric eel; over 100 µM against BuChE from equine serum.
In the case of `COc1cc(/C=C/C(=O)CC(=O)/C=C/c2ccc(O)c(OC)c2)ccc1O` [Curcumin, reference compound], at Aβ1-42 [6], the “Aβ1-42 fibril formation by TEM” value was “small dissociated aggregates and no characteristic fibrils of Aβ1-42”.
With `CS(=O)(=O)c1ccc2nc(NC(=O)CCN3CCN(c4ccc(Cl)cc4)CC3)sc2c1` [Compound 6, 3-[4-(4-Chloro-phenyl)-piperazin-1-yl]-N-(6-methanesulfonyl-benzothiazol-2-yl)-propionamide], the half-inhibitory concentration (IC50) at AChE from electric eel was 13 ± 0.813 µM; against BuChE from equine serum, over 100 µM.
For `CS(=O)(=O)c1ccc2nc(NC(=O)CCN3CCN(c4ncccn4)CC3)sc2c1` [Compound 13, N-(6-Methanesulfonyl-benzothiazol-2-yl)-3-(4-pyrimidin-2-yl-piperazin-1-yl)-propionamide], in that order: 10.9 ± 0.657 µM and over 100 µM.
In the case of `CS(=O)(=O)c1ccc2nc(NC(=O)CCN3CCN(C(=O)OCc4ccccc4)CC3)sc2c1` [Compound 15, 4-[2-(6-Methanesulfonyl-benzothiazol-2-ylcarbamoyl)-ethyl]-piperazine-1-carboxylic acid benzyl ester], the IC50 is 19.5 ± 0.452 µM against AChE from electric eel and over 100 µM on BuChE from equine serum.
The like results for `CS(=O)(=O)c1ccc2nc(NC(=O)CCN3CCN(Cc4ccccc4)CC3)sc2c1` [Compound 10, 3-(4-Benzyl-piperazin-1-yl)-N-(6-methanesulfonyl-benzothiazol-2-yl)-propionamide] were, in that order, 7.83 µM and over 100 µM.
`Cc1ccc(N2CCN(CCC(=O)Nc3nc4ccc(S(C)(=O)=O)cc4s3)CC2)cc1` [Compound 8, N-(6-Methanesulfonyl-benzothiazol-2-yl)-3-(4-p-tolyl-piperazin-1-yl)-propionamide]: the IC50 is 20.2 ± 1.44 µM on AChE from electric eel and over 100 µM against BuChE from equine serum.
The like results for `CS(=O)(=O)c1ccc2nc(NC(=O)CCN3CCN(c4ccc(F)cc4)CC3)sc2c1` [Compound 5, 3-[4-(4-Fluoro-phenyl)-piperazin-1-yl]-N-(6-methanesulfonyl-benzothiazol-2-yl)-propionamide] were, in that order, 18.3 ± 0.777 µM and over 100 µM.
The like results for `CS(=O)(=O)c1ccc2nc(NC(=O)CCN3CCN(c4ccc(C(F)(F)F)cc4)CC3)sc2c1` [Compound 17, N-(6-Methanesulfonyl-benzothiazol-2-yl)-3-[4-(4-trifluoromethyl-phenyl)-piperazin-1-yl]-propionamide] were, in that order, 26.4 ± 0.551 µM and over 100 µM.
As to `CN1[C@@H]2C[C@@H](OC(=O)[C@H](CO)c3ccccc3)C[C@H]1[C@@H]1O[C@@H]12` [scopolamine, Scopolamine hydrobromide, reference compound], the “Transfer latency (TL)” value in data set [4] (scopolamine 3 mg kg−1 i.p. alone, retention trial) amounted to 22.00 ± 0.81 s. For the same compound, the “T2/T1 ratio (second interaction trial/first interaction trial)” value in the data set with scopolamine induced mice (scopolamine 3 mg kg−1 alone, mean SEM of 6 animals) is 1.103 ± 0.037.
Consider `COc1cc2c(cc1OC)C(=O)C(CC1CCN(Cc3ccccc3)CC1)C2` (centres unmarked) [Donepezil, reference compound], for which the “Transfer latency (TL)” value in data set [4] (scopolamine 3 mg kg−1 + donepezil 5 mg kg−1 i.p., 7 days) was found to be 15.08 ± 1 s.
`CS(=O)(=O)c1ccc2nc(NC(=O)CCN3CCN(c4ccccc4)CC3)sc2c1` [Compound 4, N-(6-Methanesulfonyl-benzothiazol-2-yl)-3-(4-phenyl-piperazin-1-yl)-propionamide]: the IC50 on AChE from electric eel was 24.1 ± 0.721 µM; against BuChE from equine serum it was over 100 µM.
The like results for `CS(=O)(=O)c1ccc2nc(NC(=O)CCN3CCN(c4ccc([N+](=O)[O-])cc4)CC3)sc2c1` [Compound 7, N-(6-Methanesulfonyl-benzothiazol-2-yl)-3-[4-(4-nitro-phenyl)-piperazin-1-yl]-propionamide] were, in that order, 11.3 ± 1.8 µM and over 100 µM.
For `COc1ccc(N2CCN(CCC(=O)Nc3nc4ccc(S(C)(=O)=O)cc4s3)CC2)cc1` [Compound 9, N-(6-Methanesulfonyl-benzothiazol-2-yl)-3-[4-(4-methoxy-phenyl)-piperazin-1-yl]-propionamide], in that order: 14.5 ± 1.03 µM and over 100 µM.
The like results for `CS(=O)(=O)c1ccc2nc(NC(=O)CCN3CCN(Cc4ccc5c(c4)OCO5)CC3)sc2c1` [Compound 16, 3-(4-Benzo[1,3]dioxol-5-ylmethyl-piperazin-1-yl)-N-(6-methanesulfonyl-benzothiazol-2-yl)-propionamide] were, in that order, 5.24 µM and over 100 µM.
